Reference: patent US9492471B2, “Methods of treating a disease or disorder associated with Bruton'S Tyrosine Kinase” (Celgene Avilomics Research, Inc., priority 2013, dated 2016)
Like-named read-outs stand apart in the source and are kept apart here.

Key:
Assay in all cases: HotSpot kinase profiling
Format in all cases: biochemical
EPHA8 = molecular target: T1, EPHA8 (Homo sapiens, UniProt P29322)
T1 construct: purchased Reaction Biology Corp
T1 sequence (P29322 28-1005): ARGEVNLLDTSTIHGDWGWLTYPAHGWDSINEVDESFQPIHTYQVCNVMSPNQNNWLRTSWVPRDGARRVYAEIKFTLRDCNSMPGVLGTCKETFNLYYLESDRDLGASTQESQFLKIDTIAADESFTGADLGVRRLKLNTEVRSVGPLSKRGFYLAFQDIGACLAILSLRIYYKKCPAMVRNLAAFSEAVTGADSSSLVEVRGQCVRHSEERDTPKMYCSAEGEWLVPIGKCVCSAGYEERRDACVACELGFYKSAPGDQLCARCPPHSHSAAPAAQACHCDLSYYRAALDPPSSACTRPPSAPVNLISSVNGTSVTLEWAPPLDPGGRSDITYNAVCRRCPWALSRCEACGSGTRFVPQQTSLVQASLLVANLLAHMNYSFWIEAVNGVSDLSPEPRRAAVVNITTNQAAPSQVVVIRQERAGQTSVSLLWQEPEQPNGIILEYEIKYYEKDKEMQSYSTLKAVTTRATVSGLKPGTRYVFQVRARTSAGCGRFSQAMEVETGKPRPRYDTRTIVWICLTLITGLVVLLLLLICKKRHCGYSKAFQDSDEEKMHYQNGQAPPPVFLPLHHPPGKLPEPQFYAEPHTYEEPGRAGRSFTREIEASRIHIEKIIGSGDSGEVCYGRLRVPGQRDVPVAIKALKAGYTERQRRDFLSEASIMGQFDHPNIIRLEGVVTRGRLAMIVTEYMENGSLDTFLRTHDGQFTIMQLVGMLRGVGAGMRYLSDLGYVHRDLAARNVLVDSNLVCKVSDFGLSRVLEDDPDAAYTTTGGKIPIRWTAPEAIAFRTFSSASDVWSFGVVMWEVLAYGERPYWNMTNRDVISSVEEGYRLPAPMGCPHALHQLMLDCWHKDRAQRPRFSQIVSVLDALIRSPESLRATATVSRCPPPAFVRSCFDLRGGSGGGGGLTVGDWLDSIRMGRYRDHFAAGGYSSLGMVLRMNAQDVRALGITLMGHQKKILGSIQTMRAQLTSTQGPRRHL
Summary of the method: (§1)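 P81 filtration radiometric readout; 2 h incubation at room temperature; 0.1% phosphoric acid wash; DMSO negative control; % inhibition, mean of replicate runs.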

CAMK1b = molecular target: T2, CAMK1b (Homo sapiens, UniProt Q6P2M8)
T2 construct: purchased Reaction Biology Corp
T2 sequence (Q6P2M8 whole entry): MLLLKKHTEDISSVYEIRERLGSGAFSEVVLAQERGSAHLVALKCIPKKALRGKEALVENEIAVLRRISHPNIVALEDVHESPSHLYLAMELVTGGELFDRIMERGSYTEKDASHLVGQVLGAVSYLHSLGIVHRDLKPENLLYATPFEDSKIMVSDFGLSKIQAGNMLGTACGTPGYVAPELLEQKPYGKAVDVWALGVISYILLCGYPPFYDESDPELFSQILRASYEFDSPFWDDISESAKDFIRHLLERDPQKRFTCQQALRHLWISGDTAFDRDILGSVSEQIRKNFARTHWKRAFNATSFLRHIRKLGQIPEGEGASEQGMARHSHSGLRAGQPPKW
Summary of the method: as §1

PKCnu/PRKD3 = molecular target: T3, PKCnu/PRKD3 (Homo sapiens, UniProt O94806)
T3 construct: purchased Reaction Biology Corp
T3 sequence (O94806 1-890): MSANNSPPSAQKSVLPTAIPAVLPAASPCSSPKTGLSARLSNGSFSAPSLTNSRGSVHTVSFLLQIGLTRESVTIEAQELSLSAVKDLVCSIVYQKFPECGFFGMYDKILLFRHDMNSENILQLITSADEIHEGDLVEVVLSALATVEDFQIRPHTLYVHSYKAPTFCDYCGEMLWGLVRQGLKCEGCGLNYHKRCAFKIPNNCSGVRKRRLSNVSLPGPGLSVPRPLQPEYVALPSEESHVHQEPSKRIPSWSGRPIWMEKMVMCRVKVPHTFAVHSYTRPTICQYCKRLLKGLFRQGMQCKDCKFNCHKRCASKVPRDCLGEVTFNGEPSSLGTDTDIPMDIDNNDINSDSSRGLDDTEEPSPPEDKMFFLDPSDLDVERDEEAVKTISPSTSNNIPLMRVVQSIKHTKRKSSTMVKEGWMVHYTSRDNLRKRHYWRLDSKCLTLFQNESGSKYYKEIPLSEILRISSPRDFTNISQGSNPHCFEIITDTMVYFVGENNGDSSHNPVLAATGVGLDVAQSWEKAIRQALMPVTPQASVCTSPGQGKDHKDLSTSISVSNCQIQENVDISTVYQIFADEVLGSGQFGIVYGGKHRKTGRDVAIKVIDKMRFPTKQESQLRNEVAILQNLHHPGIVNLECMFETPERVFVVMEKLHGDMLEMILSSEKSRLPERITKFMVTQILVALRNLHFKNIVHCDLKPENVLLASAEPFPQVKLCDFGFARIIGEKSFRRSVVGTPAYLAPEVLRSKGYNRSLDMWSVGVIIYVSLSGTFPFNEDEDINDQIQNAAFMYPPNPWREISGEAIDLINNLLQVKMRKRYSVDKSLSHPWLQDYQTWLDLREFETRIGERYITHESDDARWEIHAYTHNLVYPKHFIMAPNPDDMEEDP
Summary of the method: as §1

[1] = read-out: % Enzyme Activity (relative to DMSO controls) Run 1
[2] = read-out: % Enzyme Activity (relative to DMSO controls) Run 2

`C=CC(=O)Nc1cccc(Nc2nc(Nc3ccc(OCCOC)c(F)c3)ncc2F)c1` [Compound 2] showed an inhibition at 3 µM (EPHA8) of 5.98%, a remaining activity at 3 µM (EPHA8; [1]) of 94.2% and a remaining activity at 3 µM (EPHA8; [2]) of 93.8%. For the same compound, the inhibition at 3 µM (CAMK1b) was -4.43%, the remaining activity at 3 µM (CAMK1b; [1]) was 104% and the remaining activity at 3 µM (CAMK1b; [2]) was 105%. The inhibition at 3 µM (PKCnu/PRKD3) was 20.1%, the remaining activity at 3 µM (PKCnu/PRKD3; [1]) was 80.1% and the remaining activity at 3 µM (PKCnu/PRKD3; [2]) was 79.8%.
